From patent US20230159556A1, “NOVEL PROTEIN KINASE INHIBITORS” (TENOVA PHARMACEUTICALS INC., priority 2020, published 2023)
Like-named read-outs stand apart in the source and are kept apart here. Blank lines part the entries; values can stand above or below the molecule they belong to.

Key:
[1] = ether bond, 25.0 °C, 16.0 h
[2] = ether bond
[3] = target: T1, EGFR_L858R/T790M/C797S (Homo sapiens, UniProt P00533, C797S/L858R/T790M); assay: In vitro biochemical kinase assay (33P-ATP filter-binding, Reaction Biology)
T1 construct: Reaction Biology Corporation (contract assay provider)
Description: (§1) The biochemical kinase assay was performed at Reaction Biology Corporation (www.reactionbiology.com, Malvern, Pa.) following procedures described in the reference (Anastassiadis, T, et al, Nature Biotechnology, 2011, 29, 1039). Base Reaction buffer includes 20 mM Hepes (pH 7.5), 10 mM MgCl2, 1 mM EGTA, 0.02% Brij35, 0.02 mg/ml BSA, 0.1 mM Na3VO4, 2 mM DTT and 1% DMSO. Required cofactors are added individually to each kinase reaction. Testing compounds were dissolved in 100% DMSO to specific concentration. The serial dilution was conducted by Integra Viaflo Assist in DMSO. Compounds in 100% DMSO are into the kinase reaction mixture by Acoustic technology (Echo550; nanoliter range), incubate for 20 min at room temperature, followed by ^33P-ATP and incubation for 2 hours at room temperature. Radioactivity was then detected by filter-binding method. Kinase activity data were expressed as the percent remaining kinase activity in test samples compared to vehicle (dimethyl sulfoxide) reactions. IC50 values and curve fits were obtained using Prism (GraphPad Software).

[4] = target: Ba/F3_EGFR_del19/T790M/C797S cell (Homo sapiens, UniProt P00533, T790M/C797S, cells depend on it, form not given); assay: BaF3 cell proliferation assay (CelltiterGlo, 72 hr); format: cell-based; settings: 72 hr incubation; read-out: IC50 (nM, Ba/F3_EGFR_del19/T790M/C797S cell proliferation)
Description: (§2) The BaF3 cell proliferation assay was performed at Pharmaron (www.pharmaron.com, Beijing, China). The Ba/F3_WT and Ba/F3_Del19/T790M/C797S cell lines were maintained in 1640 medium containing 10% FBS, 1*PS and 1*Glutamax. Only cells with viability greater than 90% are used for assays. Dispense 30 μl of cell suspension at 700/well into 384 well microplate, add 30 nl compound solution into 384 cell plate by Echo, cells were incubated for 72 hr in 37° C./5% CO2 incubator, add 30 μl reagent CelltiterGlo assay kit (CTG, Promega) per well and shake plates, incubate the plate (avoiding light) at 37° C./5% CO2 for 30 min. and read the luminescence by Envision. The luminescence values were converted to % Inhibition. Calculate IC50 by fitting % inhibition values and log of compound concentrations to nonlinear regression (dose response−variable slope) with Graphpad 5.0.
(§3) Y=Bottom+(Top−Bottom)/(1+10^((Log IC50−X)*HillSlope))
(§4) X: log of inhibitor concentration; Y: % Inhibition.

[5] = test system: Ba/F3_WT cell; assay: as above; format: cell-based; settings: Mus musculus, 72 hr incubation
Description: as §2, §3, §4

[6] = target: T2, EGFR_WT (Homo sapiens, UniProt P00533); assay: In vitro biochemical kinase assay (33P-ATP filter-binding, Reaction Biology)
T2 construct: Reaction Biology Corporation (contract assay provider)
Description: as §1

[7] = test system: BaF3-EGFR-Del19/T790M/C797S cells; assay: In vivo Cell Transplant Xenograft (CTX) model; set-up: species or system BALB/c nude mice; settings: for tumor growth inhibition rate TGITV (%): end of the experiment
Description: The pharmacological experiments in vivo were performed on BALB/c nude mice that subcutaneously implanted BaF3-EGFR-Del19/T790M/C797S cells. BALB/c nude mice, female, 6-8 weeks, weighted about 16-19 grams, the mice were kept in a special pathogen-free environment, and in a single ventilation cage (3 mice per cage). The bedding and water of all the cages were disinfected before use. All animals were free to obtain standard certified commercial laboratory diets. The BaF3-EGFR-Del19/T790M/C797S cell (5×10^6 cells/mice) was implanted subcutaneously for tumor growth. After 10 days, the experiment was started the average tumor volume reached about 130 mm^3. The mice were divided into 4 groups with 6 mice in each group. Compound A29 was orally administered once daily continuously for 15 days at 5 mg/kg, 15 mg/kg and 45 mg/kg. The tumor volume was measured twice a week with a two-dimensional caliper and the volume was measured in cubic millimeters and calculated by the following formula: V=0.5 a×b2, where a and b were the major and minor diameters of the tumor, respectively. The tumor volume at day n is expressed as Relative Tumor Volume (RTV) and calculated according to the following formula: RTV=TVn/TV0, where TVn is the tumor volume at day n and TV0 is the tumor volume at day 0. The T/C (the ratio of tumor volume in […] mice) is determined by TIC (%)=(mean RTV of treated group)/(mean RTV of control group)×100%. The tumor growth inhibition rate TGITV (%) is calculated using the formula TGITV (%)=(1−T/C)×100%.

T2 sequence (P00533 25-1210): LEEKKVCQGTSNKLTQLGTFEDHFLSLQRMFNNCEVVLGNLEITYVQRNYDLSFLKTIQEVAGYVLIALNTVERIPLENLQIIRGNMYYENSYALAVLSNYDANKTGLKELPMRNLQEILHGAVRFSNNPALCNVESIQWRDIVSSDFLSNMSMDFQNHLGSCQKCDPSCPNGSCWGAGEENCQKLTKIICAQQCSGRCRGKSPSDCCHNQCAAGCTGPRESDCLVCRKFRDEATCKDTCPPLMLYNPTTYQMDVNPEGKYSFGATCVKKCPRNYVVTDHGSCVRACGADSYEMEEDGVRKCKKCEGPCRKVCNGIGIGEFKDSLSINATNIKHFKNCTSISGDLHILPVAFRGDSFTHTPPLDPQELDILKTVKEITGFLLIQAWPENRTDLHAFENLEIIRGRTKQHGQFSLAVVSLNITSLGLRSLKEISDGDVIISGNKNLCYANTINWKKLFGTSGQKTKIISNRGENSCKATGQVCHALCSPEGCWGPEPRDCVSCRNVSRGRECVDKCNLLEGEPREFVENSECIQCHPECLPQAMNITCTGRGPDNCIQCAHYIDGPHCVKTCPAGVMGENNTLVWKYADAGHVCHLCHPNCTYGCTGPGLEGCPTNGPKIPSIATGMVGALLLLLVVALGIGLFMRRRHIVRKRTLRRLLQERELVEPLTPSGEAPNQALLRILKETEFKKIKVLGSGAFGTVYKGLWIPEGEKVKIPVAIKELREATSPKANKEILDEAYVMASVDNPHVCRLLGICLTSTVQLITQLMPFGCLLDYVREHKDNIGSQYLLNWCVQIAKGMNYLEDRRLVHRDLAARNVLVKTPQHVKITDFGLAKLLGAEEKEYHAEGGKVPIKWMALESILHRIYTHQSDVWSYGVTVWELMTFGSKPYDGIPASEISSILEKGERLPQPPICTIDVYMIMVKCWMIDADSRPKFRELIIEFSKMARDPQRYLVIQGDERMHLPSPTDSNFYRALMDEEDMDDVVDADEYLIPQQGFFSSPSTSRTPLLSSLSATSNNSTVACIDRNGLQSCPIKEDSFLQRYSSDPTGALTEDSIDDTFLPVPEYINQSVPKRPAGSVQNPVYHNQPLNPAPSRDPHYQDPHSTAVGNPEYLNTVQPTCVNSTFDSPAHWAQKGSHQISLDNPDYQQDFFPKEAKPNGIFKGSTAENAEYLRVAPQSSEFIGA
Chain of Ba/F3_EGFR_del19/T790M/C797S cell (P00533 with tags, fused parts or gaps DEL746-750/T790M/C797S, form open): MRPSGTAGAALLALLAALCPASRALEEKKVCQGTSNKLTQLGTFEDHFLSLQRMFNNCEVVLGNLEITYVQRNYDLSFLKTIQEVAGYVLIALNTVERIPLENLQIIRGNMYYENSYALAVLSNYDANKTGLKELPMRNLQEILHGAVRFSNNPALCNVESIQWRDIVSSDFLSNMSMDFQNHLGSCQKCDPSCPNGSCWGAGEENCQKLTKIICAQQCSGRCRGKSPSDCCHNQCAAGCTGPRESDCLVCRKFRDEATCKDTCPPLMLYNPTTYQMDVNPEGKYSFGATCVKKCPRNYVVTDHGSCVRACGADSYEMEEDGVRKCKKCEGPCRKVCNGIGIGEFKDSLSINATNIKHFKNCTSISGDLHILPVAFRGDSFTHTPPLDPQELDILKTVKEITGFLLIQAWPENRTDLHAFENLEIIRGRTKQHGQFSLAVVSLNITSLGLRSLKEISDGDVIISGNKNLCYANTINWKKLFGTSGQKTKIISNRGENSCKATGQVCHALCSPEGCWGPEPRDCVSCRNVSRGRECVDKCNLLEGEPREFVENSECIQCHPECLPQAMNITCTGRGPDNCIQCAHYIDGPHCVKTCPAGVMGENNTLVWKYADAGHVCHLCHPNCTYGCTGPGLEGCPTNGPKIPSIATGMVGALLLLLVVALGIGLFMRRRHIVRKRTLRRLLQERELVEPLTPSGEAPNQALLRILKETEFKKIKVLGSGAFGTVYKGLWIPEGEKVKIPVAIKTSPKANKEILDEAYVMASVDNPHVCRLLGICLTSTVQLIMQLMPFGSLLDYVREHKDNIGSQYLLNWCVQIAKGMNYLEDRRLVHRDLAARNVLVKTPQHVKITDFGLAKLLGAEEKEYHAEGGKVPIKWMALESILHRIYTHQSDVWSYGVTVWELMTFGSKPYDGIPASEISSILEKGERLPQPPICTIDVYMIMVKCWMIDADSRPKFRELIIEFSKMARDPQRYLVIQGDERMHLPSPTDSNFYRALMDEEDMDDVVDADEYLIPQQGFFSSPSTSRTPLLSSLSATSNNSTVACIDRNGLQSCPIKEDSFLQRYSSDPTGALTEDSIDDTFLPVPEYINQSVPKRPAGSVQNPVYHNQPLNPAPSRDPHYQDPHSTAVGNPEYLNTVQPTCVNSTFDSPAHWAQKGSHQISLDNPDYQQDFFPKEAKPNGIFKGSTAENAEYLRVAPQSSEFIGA
T1 sequence (P00533 25-1210 T790M/C797S/L858R): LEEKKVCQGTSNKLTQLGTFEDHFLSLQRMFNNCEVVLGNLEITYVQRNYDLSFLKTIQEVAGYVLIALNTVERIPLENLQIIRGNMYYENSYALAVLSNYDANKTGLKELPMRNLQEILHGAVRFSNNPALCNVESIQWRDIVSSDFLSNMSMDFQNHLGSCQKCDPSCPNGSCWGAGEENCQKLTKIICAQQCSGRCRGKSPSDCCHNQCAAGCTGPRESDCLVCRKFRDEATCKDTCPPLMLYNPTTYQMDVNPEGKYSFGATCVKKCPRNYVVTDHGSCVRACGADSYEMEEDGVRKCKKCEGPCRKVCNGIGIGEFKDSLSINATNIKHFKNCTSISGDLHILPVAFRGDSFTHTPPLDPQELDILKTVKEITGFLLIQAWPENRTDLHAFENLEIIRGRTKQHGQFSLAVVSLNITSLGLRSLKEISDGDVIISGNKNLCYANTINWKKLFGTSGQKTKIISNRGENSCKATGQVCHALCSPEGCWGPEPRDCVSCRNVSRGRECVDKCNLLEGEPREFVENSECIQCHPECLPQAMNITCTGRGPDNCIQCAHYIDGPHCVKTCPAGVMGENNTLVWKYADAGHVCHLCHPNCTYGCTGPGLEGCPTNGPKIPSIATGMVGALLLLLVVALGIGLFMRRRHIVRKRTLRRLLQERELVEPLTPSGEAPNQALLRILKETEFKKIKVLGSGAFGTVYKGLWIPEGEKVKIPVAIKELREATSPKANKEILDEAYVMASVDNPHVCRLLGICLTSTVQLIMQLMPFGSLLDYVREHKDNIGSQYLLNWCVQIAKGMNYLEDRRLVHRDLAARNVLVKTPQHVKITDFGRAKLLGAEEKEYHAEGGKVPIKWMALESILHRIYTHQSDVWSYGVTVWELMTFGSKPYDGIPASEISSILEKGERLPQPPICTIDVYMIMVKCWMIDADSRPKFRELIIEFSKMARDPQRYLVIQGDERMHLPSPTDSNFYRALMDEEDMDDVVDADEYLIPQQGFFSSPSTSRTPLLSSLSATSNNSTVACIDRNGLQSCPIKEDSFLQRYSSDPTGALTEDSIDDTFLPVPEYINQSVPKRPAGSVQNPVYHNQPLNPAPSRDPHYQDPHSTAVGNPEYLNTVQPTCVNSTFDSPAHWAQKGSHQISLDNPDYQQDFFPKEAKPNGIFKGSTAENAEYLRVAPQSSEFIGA

SMILES: COc1cc(N2CCN(C)CC2)c2cc1Nc1ncc(Cl)c(n1)Nc1ccc(cc1S(C)(=O)=O)OCCC2 [Compound A1, 3^5-chloro-1^6-methoxy-1^4-(4-methylpiperazin-1-yl)-5^2-(methylsulfonyl)-6-oxa-2,4-diaza-3(2,4)-pyrimidina-1(1,3),5(1,4)-dibenzenacyclononaphane]
ring closure, yield of all isomers ([1]; from COc1cc(N2CCN(C)CC2)c(CCCO)cc1Nc1ncc(Cl)c(Nc2ccc(O)cc2S(C)(=O)=O)n1, DIAD/PPh3, THF, 18.8 mM): 6%
ring closure, isolated yield ([2]; from COc1cc(N2CCN(C)CC2)c(CCCO)cc1Nc1ncc(Cl)c(Nc2ccc(O)cc2S(C)(=O)=O)n1, 16-membered ring, PPh3/DIAD, THF, 18.8 mM): 6%
IC50 [3]: 5580 nM

SMILES: COc1cc(N2CCC(N(C)C)CC2)c2cc1Nc1ncc(Cl)c(n1)Nc1ccc(cc1N(C)S(C)(=O)=O)OCCCCC2 [Compound A24, N-(3^5-chloro-1^4-(4-(dimethylamino)piperidin-1-yl)-1^6-methoxy-6-oxa-2,4-diaza-3(2,4)-pyrimidina-1(1,3),5(1,4)-dibenzenacycloundecaphane-5^2-yl)-N-methylmethanesulfonamide]
GI50 [4]: 63 nM
IC50 [5]: 3330 nM
IC50 [6]: 10.8 nM
IC50 [3]: 2.7 nM

SMILES: COc1cc(N2CCC(N3CCN(C)CC3)CC2)c2cc1Nc1ncc(Br)c(n1)Nc1ccc(cc1P(C)(C)=O)OCCCCC2 [Compound A33, (3^5-bromo-1^6-methoxy-1^4-(4-(4-methylpiperazin-1-yl)piperidin-1-yl)-6-oxa-2,4-diaza-3(2,4)-pyrimidina-1(1,3),5(1,4)-dibenzenacycloundecaphane-5^2-yl)dimethylphosphine oxide]
GI50 [4]: 75 nM
IC50 [5]: 6490 nM
IC50 [6]: 413 nM
IC50 [3]: 1.8 nM

SMILES: COc1cc(N2CCC(N3CCN(C)CC3)CC2)c2cc1Nc1ncc(Cl)c(n1)Nc1ccc(cc1N(C)S(C)(=O)=O)OCCCC(=O)N2 [Compound A39, N-(3^5-chloro-1^6-methoxy-1^4-(4-(4-methylpiperazin-1-yl)piperidin-1-yl)-10-oxo-6-oxa-2,4,11-triaza-3(2,4)-pyrimidina-1(1,3),5(1,4)-dibenzenacycloundecaphane-5^2-yl)-N-methylmethanesulfonamide]
ring closure, yield of all isomers ([1]; from COc1cc(N2CCC(N3CCN(C)CC3)CC2)c(NC(=O)CCCBr)cc1Nc1ncc(Cl)c(Nc2ccc(O)cc2N(C)S(C)(=O)=O)n1, K2CO3/KI, DMF, 20.0 mM): 4.2%
IC50 [3]: 7.1 nM

These reach a lower IC50 [3]. Values come first.

GI50 [4]: 22.4 nM
IC50 [5]: 1690 nM
IC50 [6]: 14.9 nM
IC50 [3]: 0.6 nM
SMILES: CCN(c1cc2ccc1Nc1nc(ncc1Br)Nc1cc(c(N3CCC(N4CCN(C)CC4)CC3)cc1OC)CCCCCO2)S(C)(=O)=O [Compound A30, N-(3^5-bromo-1^6-methoxy-1^4-(4-(4-methylpiperazin-1-yl)piperidin-1-yl)-6-oxa-2,4-diaza-3(2,4)-pyrimidina-1(1,3),5(1,4)-dibenzenacycloundecaphane-5^2-yl)-N-ethylmethanesulfonamide]

GI50 [4]: 34 nM
IC50 [5]: 1390 nM
IC50 [6]: 5.9 nM
IC50 [3]: 0.5 nM
SMILES: COc1cc(N2CCC(N3CCN(C)CC3)CC2)c2cc1Nc1ncc(Cl)c(n1)Nc1ccc(cc1N(C)S(C)(=O)=O)OCCCCC2 [Compound A9, N-(3^5-chloro-1^6-methoxy-1^4-(4-(4-methylpiperazin-1-yl)piperidin-1-yl)-6-oxa-2,4-diaza-3(2,4)-pyrimidina-1(1,3),5(1,4)-dibenzenacycloundecaphane-5^2-yl)-N-methylmethanesulfonamide]

GI50 [4]: 16.4 nM
IC50 [5]: 1320 nM
IC50 [6]: 9.2 nM
IC50 [3]: 0.5 nM
SMILES: COc1cc(N2CCC(N3CCN(C)CC3)CC2)c2cc1Nc1ncc(Br)c(n1)Nc1ccc(cc1N(C)S(C)(=O)=O)OCCCCC2 [Compound A29, N-(3^5-bromo-1^6-methoxy-1^4-(4-(4-methylpiperazin-1-yl)piperidin-1-yl)-6-oxa-2,4-diaza-3(2,4)-pyrimidina-1(1,3),5(1,4)-dibenzenacycloundecaphane-5^2-yl)-N-methylmethanesulfonamide]
Tumor Volume ([7]; 5 mg/kg orally once daily, Day 0): 130 mm^3
Tumor Volume ([7]; 5 mg/kg orally once daily, Day 2): 212 mm^3
Tumor Volume ([7]; 5 mg/kg orally once daily, Day 4): 279 mm^3
Tumor Volume ([7]; 5 mg/kg orally once daily, Day 7): 462 mm^3
Tumor Volume ([7]; 5 mg/kg orally once daily, Day 9): 633 mm^3
Tumor Volume ([7]; 5 mg/kg orally once daily, Day 11): 819 mm^3
Tumor Volume ([7]; 5 mg/kg orally once daily, Day 14): 1061 mm^3
tumor growth inhibition rate TGITV (%) ([7]; 5 mg/kg orally once daily): 68%
Tumor Volume ([7]; 15 mg/kg orally once daily, Day 0): 130 mm^3
Tumor Volume ([7]; 15 mg/kg orally once daily, Day 2): 171 mm^3
Tumor Volume ([7]; 15 mg/kg orally once daily, Day 4): 226 mm^3
Tumor Volume ([7]; 15 mg/kg orally once daily, Day 7): 346 mm^3
Tumor Volume ([7]; 15 mg/kg orally once daily, Day 9): 469 mm^3
Tumor Volume ([7]; 15 mg/kg orally once daily, Day 11): 597 mm^3
Tumor Volume ([7]; 15 mg/kg orally once daily, Day 14): 781 mm^3
tumor growth inhibition rate TGITV (%) ([7]; 15 mg/kg orally once daily): 76%
Tumor Volume ([7]; 45 mg/kg orally once daily, Day 0): 130 mm^3
Tumor Volume ([7]; 45 mg/kg orally once daily, Day 2): 147 mm^3
Tumor Volume ([7]; 45 mg/kg orally once daily, Day 4): 172 mm^3
Tumor Volume ([7]; 45 mg/kg orally once daily, Day 7): 108 mm^3
Tumor Volume ([7]; 45 mg/kg orally once daily, Day 9): 78 mm^3
Tumor Volume ([7]; 45 mg/kg orally once daily, Day 11): 25 mm^3
Tumor Volume ([7]; 45 mg/kg orally once daily, Day 14): 0 mm^3
tumor growth inhibition rate TGITV (%) ([7]; 45 mg/kg orally once daily): 100%
tumor growth inhibition (in words) ([7]; all doses (5, 15, 45 mg/kg)): significant tumor growth inhibition
ring closure, yield of all isomers ([1]; from COc1cc(N2CCC(N3CCN(C)CC3)CC2)c(CCCCCBr)cc1Nc1ncc(Br)c(Nc2ccc(O)cc2N(C)S(C)(=O)=O)n1, K2CO3/KI, DMF, 10.2 mM): 55%
ring closure, isolated yield ([2]; from COc1cc(N2CCC(N3CCN(C)CC3)CC2)c(CCCCCBr)cc1Nc1ncc(Br)c(Nc2ccc(O)cc2N(C)S(C)(=O)=O)n1, 18-membered ring, KI/K2CO3, DMF, 10.2 mM): 55%
